The results in this text go back to patent publication US9683018B2, “Disulfide cyclic polypeptides for the treatment of heart failure” (priority 2013, dated 2017).

The structures appear in SMILES notation. pEC50: −log10 of the molar value. Bridge positions count the residues as written; N and C are the ends. Square brackets hold non-standard residues; d marks the D form. Peptide text beside a SMILES is read from it. pGlu = O=C1CC[C@@H](C(=O)O)N1; d(hCys) = N[C@H](CCS)C(=O)O; dNle = CCCC[C@@H](N)C(=O)O; hCys = N[C@@H](CCS)C(=O)O; Nle = CCCC[C@H](N)C(=O)O; Aib = CC(C)(N)C(=O)O; Inp = O=C(O)C1CCNCC1

The target of data set [1] is T1, hAPJ (Homo sapiens, UniProt P35414).
T1 sequence (P35414 1-380): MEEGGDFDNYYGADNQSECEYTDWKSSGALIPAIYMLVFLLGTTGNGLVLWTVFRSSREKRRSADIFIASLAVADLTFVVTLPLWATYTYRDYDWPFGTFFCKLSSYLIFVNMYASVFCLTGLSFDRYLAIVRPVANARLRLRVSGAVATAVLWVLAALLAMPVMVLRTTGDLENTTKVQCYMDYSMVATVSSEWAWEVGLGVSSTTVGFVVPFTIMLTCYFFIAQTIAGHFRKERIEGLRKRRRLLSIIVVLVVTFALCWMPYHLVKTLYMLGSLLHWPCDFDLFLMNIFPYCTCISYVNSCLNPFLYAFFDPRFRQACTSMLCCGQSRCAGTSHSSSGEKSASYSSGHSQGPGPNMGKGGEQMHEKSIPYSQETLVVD
Description: hAPJ Calcium Flux Assay. As to conditions: Chem-5 APJ stable cells, FLIPR calcium flux; read-out: hAPJ Ca2+ Flux EC50. It counts as cell-based. The method, then:
Chem-5 APJ stable cells (Millipore # HTS068C) were plated in 384-well format with 10,000 cells/well in 25 ul growth media, then grown 24 hours in a 37° C. tissue culture incubator. One hour before the assay, 25 ul/well FLIPR Calcium 4 dye (Molecular Devices R8142) with 2.5 mM probenecid was added, and cells were incubated one hour in a 37° C. tissue culture incubator. Peptides were solubilized in HBSS, HEPES & 0.1% BSA buffer, and serially-diluted 10-fold, from 50 uM to 5 pM, in triplicate. FLIPR Tetra was used to add peptide to the cells with dye (1:5, for final peptide concentrations ranging from 10 uM to 1 pM). FLIPR dye inside the cells emitted fluorescence after binding to calcium, while fluorescence from outside the cells was masked. Fluorescence was measured using 470-495 excitation and 515-575 emission wavelengths on the FLIPR Tetra. Readings were done for 3 minutes total, beginning 10 seconds before the peptide addition. Maximum-minimum values were calculated and plotted for each peptide concentration, and GraphPad prism software was used to calculate EC50 values at the curve inflection points, for calcium flux stimulation by peptides.

A short description of data set [2]: in vitro. As to conditions: rat, plasma, Surrogate activity-based Plasma stability t½.
Description: The calcium flux protocol described above was followed, with the following changes. The peptides were also incubated with 5% rat plasma (Bioreclamation # [sequence]-M, Na Heparin-treated). Readings were taken at time points t0 and t24 hrs, after incubation in a 37° C. tissue culture incubator. Peptide plasma half-life in minutes was estimated by calculating the following:
2) Calculate slope of value above and

With `CCCC[C@H]1NC(=O)[C@@H]2CCCN2C(=O)CNC(=O)[C@H](CCCCN)NC(=O)[C@H](Cc2c[nH]cn2)NC(=O)[C@H](CO)NC(=O)[C@@H](NC(=O)[C@H](CCCNC(=N)N)NC(=O)[C@@H]2CCCN2C(=O)[C@H](CCCNC(=N)N)NC(=O)[C@@H]2CCC(=O)N2)CCSSC[C@@H](C(=O)N[C@H](Cc2ccc(O)cc2)C(=O)O)NC1=O` [Example 2, pE-R-P-R-hC*-S-H-K-G-P-(D-Nle)-C*-y-OH] ([pGlu]RPR[hCys]SHKGP[dNle]C[dY]-OH; disulfide 5-12), in data set [1], the pEC50 is 6.81. Moreover, the half-life in data set [2] is 0.867 h.

As for `CCCC[C@@H]1NC(=O)[C@@H]2CCCN2C(=O)CNC(=O)[C@H](CCCCN)NC(=O)[C@@H](NC(=O)[C@H](CO)NC(=O)[C@H](CC(C)C)NC(=O)[C@H](CCCNC(=N)N)NC(=O)[C@@H]2CCCN2C(=O)[C@H](CCCNC(=N)N)NC(=O)[C@@H]2CCC(=O)N2)CSSCC[C@H](C(=O)N[C@@H](Cc2ccccc2)C(=O)O)NC1=O` [Example 4, pE-R-P-R-L-S-C*-K-G-P-Nle-(D-hC)*-F-OH] ([pGlu]RPRLSCKGP[Nle][d(hCys)]F-OH; disulfide 7-12), the pEC50 in data set [1] is 6.39. Further, in data set [2], the half-life was determined as 0.403 h.

On to `CCCC[C@@H]1NC(=O)[C@@H]2CCCN2C(=O)CNC(=O)[C@H](CCCCN)NC(=O)[C@H](NC(=O)[C@H](CO)NC(=O)[C@H](CC(C)C)NC(=O)[C@H](CCCNC(=N)N)NC(=O)[C@@H]2CCCN2C(=O)[C@H](CCCNC(=N)N)NC(=O)[C@@H]2CCC(=O)N2)CSSCC[C@H](C(=O)N[C@@H](Cc2ccccc2)C(=O)O)NC1=O` [Example 5, pE-R-P-R-L-S-c*-K-G-P-Nle-(D-hC)*-F-OH] ([pGlu]RPRLS[dC]KGP[Nle][d(hCys)]F-OH; disulfide 7-12), for which, in data set [1], the pEC50 was 6.01. In data set [2], this compound yielded a half-life of 23.9 h.

As for `CCCC[C@@H]1NC(=O)[C@@H]2CCCN2C(=O)CNC(=O)[C@H](CCCCN)NC(=O)[C@@H](NC(=O)[C@H](CO)NC(=O)[C@H](CC(C)C)NC(=O)[C@H](CCCNC(=N)N)NC(=O)[C@@H]2CCCN2C(=O)[C@H](CCCNC(=N)N)NC(=O)[C@@H]2CCC(=O)N2)CCSSCC[C@H](C(=O)N[C@@H](Cc2ccccc2)C(=O)O)NC1=O` [Example 6, pE-R-P-R-L-S-hC*-K-G-P-Nle-(D-hC)*-F-OH] ([pGlu]RPRLS[hCys]KGP[Nle][d(hCys)]F-OH; disulfide 7-12), the pEC50 in data set [1] is 7.03. In data set [2], this compound came in with a half-life of 0.208 h.

As to `CCCC[C@@H]1NC(=O)[C@@H]2CCCN2C(=O)CNC(=O)[C@H](CCCCN)NC(=O)[C@H](NC(=O)[C@H](CO)NC(=O)[C@H](CC(C)C)NC(=O)[C@H](CCCNC(=N)N)NC(=O)[C@@H]2CCCN2C(=O)[C@H](CCCNC(=N)N)NC(=O)[C@@H]2CCC(=O)N2)CCSSCC[C@H](C(=O)N[C@@H](Cc2ccccc2)C(=O)O)NC1=O` [Example 7, pE-R-P-R-L-S-(D-hC)*-K-G-P-Nle-(D-hC)*-F-OH] ([pGlu]RPRLS[d(hCys)]KGP[Nle][d(hCys)]F-OH; disulfide 7-12), the pEC50 in data set [1] is 6.11. Also, in data set [2], the half-life came out at 2.01 h.

Consider `CCCC[C@@H]1NC(=O)[C@@H]2CCCN2C(=O)CNC(=O)[C@H](CCCCN)NC(=O)[C@H](NC(=O)[C@H](CO)NC(=O)[C@H](CC(C)C)NC(=O)[C@H](CCCNC(=N)N)NC(=O)[C@@H]2CCCN2C(=O)[C@H](CCCNC(=N)N)NC(=O)[C@@H]2CCC(=O)N2)CCSSC[C@@H](C(=O)N[C@@H](Cc2ccccc2)C(=O)O)NC1=O` [Example 8, pE-R-P-R-L-S-(D-hC)*-K-G-P-Nle-C*-F-OH] ([pGlu]RPRLS[d(hCys)]KGP[Nle]CF-OH; disulfide 7-12), for which the pEC50 in data set [1] is 6.21. This compound came in with a half-life in data set [2] of 1.29 h.

Take `CCCC[C@@H]1NC(=O)[C@@H]2CCCN2C(=O)CNC(=O)[C@H](CCCCN)NC(=O)[C@H](NC(=O)[C@H](CO)NC(=O)[C@H](CC(C)C)NC(=O)[C@H](CCCNC(=N)N)NC(=O)[C@@H]2CCCN2C(=O)[C@H](CCCNC(=N)N)NC(=O)[C@@H]2CCC(=O)N2)CCSSCC[C@@H](C(=O)N[C@@H](Cc2ccccc2)C(=O)O)NC1=O` [Example 9, pE-R-P-R-L-S-(D-hC)*-K-G-P-Nle-hC*-F-OH] ([pGlu]RPRLS[d(hCys)]KGP[Nle][hCys]F-OH; disulfide 7-12): the pEC50 in data set [1] is 5.99. Moreover, the half-life in data set [2] was determined as 0.95 h.

Regarding `CCCC[C@@H]1NC(=O)[C@@H]2CCCN2C(=O)CNC(=O)[C@H](CCCCN)NC(=O)[C@H](NC(=O)[C@H](CO)NC(=O)[C@H](CC(C)C)NC(=O)[C@H](CCCNC(=N)N)NC(=O)[C@@H]2CCCN2C(=O)[C@H](CCCNC(=N)N)NC(=O)[C@@H]2CCC(=O)N2)CCSSC[C@@H](C(=O)O)NC1=O` [Example 10, pE-R-P-R-L-S-(D-hC)*-K-G-P-Nle-C*-OH] ([pGlu]RPRLS[d(hCys)]KGP[Nle]C-OH; disulfide 7-12), the pEC50 in data set [1] was 6.01. This compound had a half-life in data set [2] of 1.64 h.

For the compound `CCCC[C@@H]1NC(=O)[C@@H]2CCCN2C(=O)CNC(=O)[C@H](CCCCN)NC(=O)[C@@H](NC(=O)[C@H](CO)NC(=O)[C@H](CC(C)C)NC(=O)[C@H](CCCNC(=N)N)NC(=O)[C@@H]2CCCN2C(=O)[C@H](CCCNC(=N)N)NC(=O)[C@@H]2CCC(=O)N2)CSSC[C@H](C(=O)N[C@@H](Cc2ccccc2)C(=O)O)NC1=O` [Example 11, pE-R-P-R-L-S-C*-K-G-P-Nle-c*-F-OH] ([pGlu]RPRLSCKGP[Nle][dC]F-OH; disulfide 7-12), the pEC50 in data set [1] is 6.95. The compound further displayed a half-life in data set [2] of 2.28 h.

Turning to `CCCC[C@@H]1NC(=O)[C@@H]2CCCN2C(=O)CNC(=O)[C@H](CCCCN)NC(=O)[C@@H](NC(=O)[C@H](CO)NC(=O)[C@H](CC(C)C)NC(=O)[C@H](CCCNC(=N)N)NC(=O)[C@@H]2CCCN2C(=O)[C@H](CCCNC(=N)N)NC(=O)[C@@H]2CCC(=O)N2)CSSCC[C@@H](C(=O)N[C@@H](Cc2ccccc2)C(=O)O)NC1=O` [Example 12, pE-R-P-R-L-S-C*-K-G-P-Nle-hC*-F-OH] ([pGlu]RPRLSCKGP[Nle][hCys]F-OH; disulfide 7-12), the pEC50 in data set [1] was 7.09. In addition, in data set [2], the half-life came out at 1.17 h.

As for `CCCC[C@@H]1NC(=O)[C@@H]2CCCN2C(=O)CNC(=O)[C@H](CCCCN)NC(=O)[C@@H](NC(=O)[C@H](CO)NC(=O)[C@H](CC(C)C)NC(=O)[C@H](CCCNC(=N)N)NC(=O)[C@@H]2CCCN2C(=O)[C@H](CCCNC(=N)N)NC(=O)[C@@H]2CCC(=O)N2)CCSSCC[C@@H](C(=O)N[C@@H](Cc2ccccc2)C(=O)O)NC1=O` [Example 13, pE-R-P-R-L-S-hC*-K-G-P-Nle-hC*-F-OH] ([pGlu]RPRLS[hCys]KGP[Nle][hCys]F-OH; disulfide 7-12), the pEC50 in data set [1] is 6.12. In addition, in data set [2], the half-life worked out at 1.73 h.

With `CCCC[C@@H]1NC(=O)[C@@H]2CCCN2C(=O)[C@@H](NC(=O)[C@H](CCCCN)NC(=O)[C@@H](C)NC(=O)[C@H](CO)NC(=O)[C@H](CC(C)C)NC(=O)[C@H](CCCNC(=N)N)NC(=O)[C@@H]2CCCN2C(=O)[C@H](CCCNC(=N)N)NC(=O)[C@@H]2CCC(=O)N2)CSSC[C@@H](C(=O)N[C@H](Cc2ccccc2)C(=O)O)NC1=O` [Example 16, pE-R-P-R-L-S-a-K-C*-P-Nle-C*-f-OH] ([pGlu]RPRLS[dA]KCP[Nle]C[dF]-OH; disulfide 9-12), the pEC50 in data set [1] was 7.48. Moreover, the half-life in data set [2] was 5.38 h.

In the case of `CCCC[C@@H]1NC(=O)[C@@H]2CCCN2C(=O)[C@@H](NC(=O)[C@H](CCCCN)NC(=O)[C@H](Cc2c[nH]cn2)NC(=O)[C@@H](C)NC(=O)[C@H](CC(C)C)NC(=O)[C@H](CCCNC(=N)N)NC(=O)[C@@H]2CCCN2C(=O)[C@H](CCCNC(=N)N)NC(=O)C2CCNCC2)CSSC[C@@H](C(=O)N[C@H](Cc2ccccc2)C(=O)O)NC1=O` [Example 18, Isonipecotoyl-R-P-R-L-a-H-K-C*-P-Nle-C*-f-OH] (H-[Inp]RPRL[dA]HKCP[Nle]C[dF]-OH; disulfide 9-12), the pEC50 in data set [1] is 8.64. In data set [2], this compound had a half-life of 16.5 h.

As to `CCCC[C@@H]1NC(=O)[C@@H]2CCCN2C(=O)[C@@H](NC(=O)[C@H](CCCCN)NC(=O)C(C)(C)NC(=O)[C@@H](C)NC(=O)[C@H](CC(C)C)NC(=O)[C@H](CCCNC(=N)N)NC(=O)[C@@H]2CCCN2C(=O)[C@H](CCCNC(=N)N)NC(=O)[C@@H]2CCC(=O)N2)CSSC[C@@H](C(=O)N[C@H](Cc2ccccc2)C(=O)O)NC1=O` [Example 19, pE-R-P-R-L-a-Aib-K-C*-P-Nle-C*-f-OH] ([pGlu]RPRL[dA][Aib]KCP[Nle]C[dF]-OH; disulfide 9-12), the pEC50 in data set [1] is 7.14. In data set [2], this compound returned a half-life of 36.4 h.

As to `CCCC[C@@H]1NC(=O)[C@@H]2CCCN2C(=O)[C@@H](NC(=O)[C@H](CCCCN)NC(=O)C(C)(C)NC(=O)[C@H](CO)NC(=O)[C@H](CC(C)C)NC(=O)[C@H](CCCNC(=N)N)NC(=O)[C@@H]2CCCN2C(=O)[C@H](CCCNC(=N)N)NC(=O)[C@@H]2CCC(=O)N2)CSSC[C@@H](C(=O)N[C@H](Cc2ccccc2)C(=O)O)NC1=O` [Example 20, pE-R-P-R-L-S-Aib-K-C*-P-Nle-C*-f-OH] ([pGlu]RPRLS[Aib]KCP[Nle]C[dF]-OH; disulfide 9-12), the pEC50 in data set [1] was 8.21. The compound further yielded a half-life in data set [2] of 5.52 h.

One may read the pEC50 as the negative decadic logarithm of the EC50, by convention in mol/L. One may read the half-life as the time needed for the level to fall by half in the phase considered. A higher half-life goes with slow decline.
